{
  "source": "patent US6497890B2",
  "about": "“Anti-wrinkle preparation and method of reducing wrinkles in facial skin and neck” (priority 1996, dated 2002)",
  "origin": "cited, not measured here",
  "data": [
    {"test_system": "not given", "details": "commonly prescribed NSAIDS", "units": {"Half Life": "h"}, "values": [
      {"molecule": "O=C(O)Cc1ccccc1Nc1c(Cl)cccc1Cl", "note": "[Diclofenac]", "Half Life": 1.5},
      {"molecule": "CC(C(=O)O)c1cccc(Oc2ccccc2)c1", "note": "(centres unmarked) [Fenoprofen]", "Half Life": 2},
      {"molecule": "COc1ccc2c(c1)c(CC(=O)O)c(C)n2C(=O)c1ccc(Cl)cc1", "note": "[Indomethacin]", "Half Life": "3 to 11"},
      {"molecule": "Cc1ccc(Cl)c(Nc2ccccc2C(=O)O)c1Cl", "note": "[Meclofenamate]", "Half Life": "2 to 3"},
      {"molecule": "O=C(O)CCc1nc(-c2ccccc2)c(-c2ccccc2)o1", "note": "[Oxaprozin]", "Half Life": 40},
      {"molecule": "CN1C(C(=O)Nc2ccccn2)=C(O)c2ccccc2S1(=O)=O", "note": "[Piroxicam]", "Half Life": "30 to 86"},
      {"molecule": "CC1=C(CC(=O)O)c2cc(F)ccc2/C1=C\\c1ccc([S+](C)[O-])cc1", "note": "(centres unmarked) [Sulindac]", "Half Life": 16},
      {"molecule": "Cc1ccc(C(=O)c2ccc(CC(=O)O)n2C)cc1", "note": "[Tolmetin]", "Half Life": "1 to 2"}
    ]},
    {"test_system": "rheumatoid arthritis patients", "details": "RA patients; mostly", "units": {"onset of action": "month"}, "values": [
      {"molecule": "CN(Cc1cnc2nc(N)nc(N)c2n1)c1ccc(C(=O)N[C@@H](CCC(=O)O)C(=O)O)cc1", "note": "[Methotrexate]", "onset of action": "≤ 1"}
    ]},
    {"test_system": "rheumatoid arthritis patients", "details": "remittive agents in RA", "values": [
      {"molecule": "CC(=O)OC[C@H]1O[C@@H]([S-])[C@H](OC(C)=O)[C@@H](OC(C)=O)[C@@H]1OC(C)=O.CCP(CC)CC.[Au+]", "note": "[Auranofin]", "EFFICACY (estimated rate)": "Intermediate", "TOXICITY (estimated rate)": "Intermediate"},
      {"molecule": "Cn1cnc([N+](=O)[O-])c1Sc1ncnc2nc[nH]c12", "note": "[Azathioprine]", "EFFICACY (estimated rate)": "Intermediate", "TOXICITY (estimated rate)": "High"},
      {"molecule": "O=P1(N(CCCl)CCCl)NCCCO1", "note": "(centres unmarked) [Cyclophosphamide]", "EFFICACY (estimated rate)": "High", "TOXICITY (estimated rate)": "High"},
      {"molecule": "CCN(CCO)CCCC(C)Nc1ccnc2cc(Cl)ccc12", "note": "(centres unmarked) [Hydroxychloroquine]", "EFFICACY (estimated rate)": "Intermediate", "TOXICITY (estimated rate)": "Low"},
      {"molecule": "CN(Cc1cnc2nc(N)nc(N)c2n1)c1ccc(C(=O)N[C@@H](CCC(=O)O)C(=O)O)cc1", "note": "[Methotrexate]", "EFFICACY (estimated rate)": "High", "TOXICITY (estimated rate)": "Intermediate"},
      {"molecule": "CC(C)(S)[C@@H](N)C(=O)O", "note": "[Penicillamine]", "EFFICACY (estimated rate)": "Intermediate", "TOXICITY (estimated rate)": "High"},
      {"molecule": "O=C(O)c1cc(/N=N/c2ccc(S(=O)(=O)Nc3ccccn3)cc2)ccc1O", "note": "[Sulfasalazine]", "EFFICACY (estimated rate)": "Intermediate", "TOXICITY (estimated rate)": "Intermediate"}
    ]}
  ]
}
